In assay [1] the target is mouse TAAR1 (Mus musculus (Mouse), UniProt Q923Y8). Briefly: Radioligand binding assay on mouse TAAR1. To be noted: mouse TAAR1, HEK-293 membranes; first value of the mouse/rat pair. The method, then: (§1) Construction of TAAR Expression Plasmids and Stably Transfected Cell Lines
(§2) For the construction of expression plasmids the coding sequences of human, rat and mouse TAAR 1 were amplified from genomic DNA essentially as described by Lindemann et al..
(§3) The Expand High Fidelity PCR System (Roche Diagnostics) was used with 1.5 mM Mg^2+ and purified PCR products were cloned into pCR2.1-TOPO cloning vector (Invitrogen) following the instructions of the manufacturer. PCR products were subcloned into the pIRESneo2 vector (BD Clontech, Palo Alto, Calif.), and expression vectors were sequence verified before introduction in cell lines.
(§4) HEK293 cells (ATCC # CRL-1573) were cultured essentially as described by Lindemann et al. (2005). For the generation of stably transfected cell lines HEK293 cells were transfected with the pIRESneo2 expression plasmids containing the TAAR coding sequences (described above) with Lipofectamine 2000 (Invitrogen) according to the instructions of the manufacturer, and 24 hrs post transfection the culture medium was supplemented with 1 mg/ml G418 (Sigma, Buchs, Switzerland). After a culture period of about 10 d clones were isolated, expanded and tested for responsiveness to trace amines (all compounds purchased from Sigma) with the cAMP Biotrak Enzyme immunoassay (EIA) System (Amersham) following the non-acetylation EIA procedure provided by the manufacturer.
Radioligand Binding Assay on Mouse TAAR1
(§5) Membrane Preparation and Radioligand Binding.
(§6) HEK-293 cells stably expressing mouse TAAR1 were maintained at 37° C. and 5% CO2 in DMEM high glucose medium, containing fetal calf serum (10%, heat inactivated for 30 min at 56° C.), penicillin/streptomycin (1%), and 375 μg/ml geneticin (Gibco). Cells were released from culture flasks using trypsin/EDTA, harvested, washed twice with ice-cold PBS (without Ca^2+ and Mg^2+), pelleted at 1,000 rpm for 5 min at 4° C., frozen and stored at −80° C. Frozen pellets were suspended in 20 ml HEPES-NaOH (20 mM, pH 7.4) containing 10 mM EDTA and homogenized with a Polytron (PT 6000, Kinematica) at 14,000 rpm for 20 s. The homogenate was centrifuged at 48,000×g for 30 min at 4° C. Subsequently, the supernatant was removed and discarded, and the pellet resuspended in 20 ml HEPES-NaOH (20 mM, pH 7.4) containing 0.1 mM EDTA using the Polytron (20 s at 14,000 rpm). This procedure was repeated and the final pellet resuspended in HEPES-NaOH containing 0.1 mM EDTA and homogenized using the Polytron. Typically, aliquots of 2 ml membrane portions were stored at −80° C. With each new membrane batch the dissociation constant (Kd) was determined via a saturation curve. […] Nonspecific binding was defined as the amount of ^3[H]-(S)-4-[(ethyl-phenyl-amino)-methyl]-4,5-dihydro-oxazol-2-ylamine bound in the presence of 10 μM unlabeled ligand. All compounds were tested at a broad range of concentrations (10 pM to 10 μM) in duplicates. […] The 96 deep well plates were incubated for 1 hr at 4° C. Incubations were terminated by rapid filtration through Unifilter-96 plates (Packard Instrument Company) and glass filters GF/C (Perkin Elmer) presoaked for 1 hr in polyethylenimine (0.3%) and washed 3 times with 1 ml of cold binding buffer. After addition of 45 μl of Microscint 40 (PerkinElmer) the Unifilter-96 plate was sealed and after 1 hr the radioactivity counted using a TopCount Microplate Scintillation Counter (Packard Instrument Company).

For assay [2], the target named is rat TAAR1 (Rattus norvegicus (Rat), UniProt Q923Y9). The assay can be described thus: Radioligand binding assay on rat TAAR1. To be noted: rat TAAR1, HEK-293 membranes; second value of the mouse/rat pair. As for the experimental part: as §1, §2, §3, §4
Sequence of rat TAAR1 (Q923Y9 whole entry): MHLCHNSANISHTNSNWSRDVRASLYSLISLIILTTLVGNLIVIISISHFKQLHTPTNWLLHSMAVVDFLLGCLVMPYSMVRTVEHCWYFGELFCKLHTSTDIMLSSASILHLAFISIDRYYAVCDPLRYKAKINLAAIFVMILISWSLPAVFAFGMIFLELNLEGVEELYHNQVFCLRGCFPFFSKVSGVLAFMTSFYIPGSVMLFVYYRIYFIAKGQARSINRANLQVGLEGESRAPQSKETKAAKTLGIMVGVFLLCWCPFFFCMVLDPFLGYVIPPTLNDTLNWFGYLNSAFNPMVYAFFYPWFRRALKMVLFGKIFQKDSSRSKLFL
Radioligand Binding Assay on Rat TAAR1
as §5
as §6, with “rat” for “mouse”, “[H]-(S)-4-[(ethyl-phenyl-amino)-methyl]-4,5-dihydro-oxazol-2-ylamine” for “^3[H]-(S)-4-[(ethyl-phenyl-amino)-methyl]-4,5-dihydro-oxazol-2-ylamine”, “[…]” for “pM”

This is an account of results in patent US9828374B2, “Substituted pyrazino[2,2-a]isoquinoline derivatives” (Hoffmann-La Roche Inc., priority 2014, dated 2017).

The structures appear in SMILES notation.

Sequence of mouse TAAR1 (Q923Y8 whole entry): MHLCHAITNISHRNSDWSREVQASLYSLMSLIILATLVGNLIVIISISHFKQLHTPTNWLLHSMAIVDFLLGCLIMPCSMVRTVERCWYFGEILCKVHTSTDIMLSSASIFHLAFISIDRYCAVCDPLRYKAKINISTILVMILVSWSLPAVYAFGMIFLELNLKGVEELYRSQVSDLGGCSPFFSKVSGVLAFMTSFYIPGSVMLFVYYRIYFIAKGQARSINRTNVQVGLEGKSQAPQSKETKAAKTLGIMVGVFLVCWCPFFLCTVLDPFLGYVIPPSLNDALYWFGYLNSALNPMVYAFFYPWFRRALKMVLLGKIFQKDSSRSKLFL

Regarding `Fc1c(Nc2cc(Cl)nc(C(F)(F)F)n2)ccc2c1CCN1CCNC[C@H]21` [Example 31, (11bS)-N-[6-chloro-2-(trifluoromethyl)pyrimidin-4-yl]-8-fluoro-2,3,4,6,7,11b-hexahydro-1H-pyrazino[2,1-a]isoquinolin-9-amine], the inhibitory constant (Ki) was 0.835 µM in assay [1] and 1.73 µM in assay [2].

Regarding `O=C(Nc1ccc2c(c1)CCN1CCNC[C@@H]21)c1ccnc(C(F)(F)F)c1` [Example 1, N-[(11bR)-2,3,4,6,7,11b-hexahydro-1H-pyrazino[2,1-a]isoquinolin-9-yl]-2-(trifluoromethyl)pyridine-4-carboxamide], the Ki in assay [1] turned out to be 0.121 µM; in assay [2], 0.199 µM.

As for `FC(F)(F)c1nccc(Nc2ccc3c(c2)CCN2CCNC[C@H]32)n1` [Example 11, (11bS)-N-[2-(trifluoromethyl)pyrimidin-4-yl]-2,3,4,6,7,11b-hexahydro-1H-pyrazino[2,1-a]isoquinolin-9-amine], the Ki is 1.18 µM in assay [1] and 0.904 µM in assay [2].

For `FC(F)(F)c1nc(Cl)cc(Nc2ccc3c(c2)CCN2CCNC[C@@H]32)n1` [Example 21, (11bR)-N-[6-chloro-2-(trifluoromethyl)pyrimidin-4-yl]-2,3,4,6,7,11b-hexahydro-1H-pyrazino[2,1-a]isoquinolin-9-amine], the inhibition constant (Ki) amounted to 0.0264 µM in assay [1] and 0.0134 µM in assay [2].

On to `c1cc2c(cc1Nc1ncc(C3CC3)cn1)CCN1CCNC[C@@H]21` [Example 14, (11bR)-N-(5-cyclopropylpyrimidin-2-yl)-2,3,4,6,7,11b-hexahydro-1H-pyrazino[2,1-a]isoquinolin-9-amine], for which the Ki in assay [1] stood at 0.0066 µM; in assay [2], 0.0192 µM.

As to `CCc1ccc2c(c1)CCN1CCNC[C@@H]21` [Example 27, (11bR)-9-ethyl-2,3,4,6,7,11b-hexahydro-1H-pyrazino[2,1-a]isoquinoline], the Ki in assay [1] is 0.266 µM; in assay [2], 0.288 µM.

Consider `O=C(Nc1ccc(C(F)(F)F)cc1)Nc1ccc2c(c1)CCN1CCNC[C@@H]21` [Example 35, (R)-1-(2,3,4,6,7,11b-hexahydro-1H-pyrazino[2,1-a]isoquinolin-9-yl)-3-(4-(trifluoromethyl)phenyl)urea], for which the results for the Ki in assay [1] and in assay [2] were 0.0025 µM and 0.0012 µM, respectively.

As for `Cc1nsc(Nc2ccc3c(c2)CCN2CCNC[C@@H]32)n1` [Example 40, (R)-N-(2,3,4,6,7,11b-hexahydro-1H-pyrazino[2,1-a]isoquinolin-9-yl)-3-methyl-1,2,4-thiadiazol-5-amine], the Ki in assay [1] turned out to be 0.202 µM; in assay [2] it was 0.826 µM.

Consider `CN(C)c1cc(Nc2ccc3c(c2)CCN2CCNC[C@@H]32)nc(C(F)(F)F)n1` [Example 19, N4-[(11bR)-2,3,4,6,7,11b-hexahydro-1H-pyrazino[2,1-a]isoquinolin-9-yl]-N6,N6-dimethyl-2-(trifluoromethyl)pyrimidine-4,6-diamine], for which the Ki was determined as 0.0231 µM in assay [1] and 0.0076 µM in assay [2].

In the case of `Fc1cccc2c1CCN1CCNC[C@@H]21` [Example 30, (11bR)-8-fluoro-2,3,4,6,7,11b-hexahydro-1H-pyrazino[2,1-a]isoquinoline], the Ki in assay [1] was determined as 0.176 µM; in assay [2] it was 0.201 µM.
